# Assay results taken from article PMC9837035 (Nature Communications, 2023).
# Several values for one entry are separate records, joined by “and”; a condition that tells them apart may be missing. Equal values may be shown once.
# Legend:
# [1] = tested on: γ-globin proteins in CD34+-derived cells; experiment: γ-globin protein quantification by LC-MS/MS in CD34+-derived cells; assay type: cell-based, human
# Experimental: The extraction and digestion of proteins were performed according to the method reported in a previous paper. Briefly, collected cell pellets, 120 μL of water, 12.5 μL of acetonitrile, and 12.5 μL of 1% formic acid were mixed and sonicated. The mixture was centrifuged to remove the cell debris and the supernatant was collected. Ten microliters of supernatant was reduced by dithiothreitol, alkylated with iodoacetamide, and digested with trypsin/Lys-C mix (Promega) in 50 mM ammonium bicarbonate (pH 8.0) (Sigma) at 37 °C overnight. For protein quantification analysis by LC–MS/MS, 10 pmol of stable isotope–labeled peptides (synthesized by the Support Unit for Bio-Material Analysis, RIKEN Center for Brain Science) were added to the digested sample as an internal standard. The digested sample was stored at −25 °C until analysis. The trypsinized sample was applied to an EASY-nLC 1000 liquid chromatograph (Thermo Fisher Scientific) and Q-Exactive mass spectrometer (Thermo Fisher Scientific) equipped with a nanospray ion source (Thermo Fisher Scientific). […]
# Protein quantification was performed using Vanquish UHPLC (Thermo Fisher Scientific) and TSQ-Vantage EMR (Thermo Fisher Scientific) with a HESI-II ion source (Thermo Fisher Scientific) in multiple reaction monitoring (MRM) mode. […]
# MLL2 [2] = biological target: MLL2 (Homo sapiens, UniProt O14686)
# Sequence of MLL2 (Homo sapiens, UniProt O14686) (O14686 5319-5537): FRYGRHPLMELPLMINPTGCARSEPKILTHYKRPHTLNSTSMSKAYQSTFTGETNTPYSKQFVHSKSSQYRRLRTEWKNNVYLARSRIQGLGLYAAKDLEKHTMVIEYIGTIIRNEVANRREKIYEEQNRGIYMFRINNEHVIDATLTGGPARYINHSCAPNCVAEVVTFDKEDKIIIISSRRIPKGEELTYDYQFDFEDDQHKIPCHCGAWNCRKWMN
# Sequence of MLL2 (Homo sapiens, UniProt O14686) (Q9C005 whole entry, further chain): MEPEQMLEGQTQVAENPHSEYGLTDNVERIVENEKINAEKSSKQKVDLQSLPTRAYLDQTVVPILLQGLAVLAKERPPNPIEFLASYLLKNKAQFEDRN
# Sequence of MLL2 (Homo sapiens, UniProt O14686) (Q15291 whole entry, further chain): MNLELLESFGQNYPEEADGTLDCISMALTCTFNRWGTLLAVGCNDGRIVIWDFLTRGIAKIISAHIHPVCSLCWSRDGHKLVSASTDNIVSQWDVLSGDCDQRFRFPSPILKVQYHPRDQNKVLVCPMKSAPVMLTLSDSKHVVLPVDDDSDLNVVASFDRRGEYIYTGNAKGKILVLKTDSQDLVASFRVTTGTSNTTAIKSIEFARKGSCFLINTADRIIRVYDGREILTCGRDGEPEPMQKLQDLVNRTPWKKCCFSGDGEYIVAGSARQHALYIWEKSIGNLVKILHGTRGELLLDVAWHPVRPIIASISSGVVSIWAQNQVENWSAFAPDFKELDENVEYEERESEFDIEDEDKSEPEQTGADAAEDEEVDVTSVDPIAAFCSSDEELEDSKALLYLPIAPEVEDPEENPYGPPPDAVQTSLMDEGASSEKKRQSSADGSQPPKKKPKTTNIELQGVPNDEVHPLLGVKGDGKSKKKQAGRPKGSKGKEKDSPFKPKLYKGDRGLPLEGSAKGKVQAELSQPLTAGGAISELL
# Sequence of MLL2 (Homo sapiens, UniProt O14686) (Q9UBL3 whole entry, further chain): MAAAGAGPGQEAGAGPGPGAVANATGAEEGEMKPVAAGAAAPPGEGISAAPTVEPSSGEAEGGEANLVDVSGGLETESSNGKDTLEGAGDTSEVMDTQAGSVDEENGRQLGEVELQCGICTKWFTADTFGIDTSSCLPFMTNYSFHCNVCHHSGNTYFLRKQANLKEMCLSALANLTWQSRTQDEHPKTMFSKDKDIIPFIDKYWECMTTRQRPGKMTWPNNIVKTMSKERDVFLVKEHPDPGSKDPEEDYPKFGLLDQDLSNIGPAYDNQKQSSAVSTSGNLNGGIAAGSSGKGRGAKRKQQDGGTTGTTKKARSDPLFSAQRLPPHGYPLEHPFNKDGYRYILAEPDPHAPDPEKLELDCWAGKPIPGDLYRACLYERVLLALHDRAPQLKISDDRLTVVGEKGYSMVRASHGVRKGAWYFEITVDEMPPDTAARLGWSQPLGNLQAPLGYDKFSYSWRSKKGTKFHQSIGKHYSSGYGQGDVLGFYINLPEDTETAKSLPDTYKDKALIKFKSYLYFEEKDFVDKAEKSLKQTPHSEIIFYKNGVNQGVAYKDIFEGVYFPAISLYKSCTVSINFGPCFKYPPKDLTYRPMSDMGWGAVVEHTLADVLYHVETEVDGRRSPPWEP
# Sequence of MLL2 (O14686 5319-5537): as the sequence (O14686 5319-5537) above
# Sequence of MLL2 (Q9C005 whole entry, further chain): as the sequence (Q9C005 whole entry, further chain) above
# Sequence of MLL2 (Q15291 whole entry, further chain): as the sequence (Q15291 whole entry, further chain) above
# Sequence of MLL2 (Q9UBL3 whole entry, further chain): as the sequence (Q9UBL3 whole entry, further chain) above
# [3] = Liver microsomal stability assay, human; assay type: in vitro ADME; details: for Metabolic stability, % remaining of RK-701: Human
# Experimental: [Human/Rat] Liver microsome analyses (human, rat) were performed in triplicate by the Sumika Chemical Analysis Service (SCAS) according to the standard protocols. […] [Dog/Monkey] Liver microsome analyses (dog, monkey) were performed in duplicate by RIKEN according to the same protocols as SCAS.
# MLL2 [4] = biological target: MLL2
# PRMT5/MEP50 = PRMT5/MEP50 (Homo sapiens, UniProt O14744); experiment: Radioisotope-based methyltransferase assay (selectivity)
# Sequence of PRMT5/MEP50 (O14744 whole entry): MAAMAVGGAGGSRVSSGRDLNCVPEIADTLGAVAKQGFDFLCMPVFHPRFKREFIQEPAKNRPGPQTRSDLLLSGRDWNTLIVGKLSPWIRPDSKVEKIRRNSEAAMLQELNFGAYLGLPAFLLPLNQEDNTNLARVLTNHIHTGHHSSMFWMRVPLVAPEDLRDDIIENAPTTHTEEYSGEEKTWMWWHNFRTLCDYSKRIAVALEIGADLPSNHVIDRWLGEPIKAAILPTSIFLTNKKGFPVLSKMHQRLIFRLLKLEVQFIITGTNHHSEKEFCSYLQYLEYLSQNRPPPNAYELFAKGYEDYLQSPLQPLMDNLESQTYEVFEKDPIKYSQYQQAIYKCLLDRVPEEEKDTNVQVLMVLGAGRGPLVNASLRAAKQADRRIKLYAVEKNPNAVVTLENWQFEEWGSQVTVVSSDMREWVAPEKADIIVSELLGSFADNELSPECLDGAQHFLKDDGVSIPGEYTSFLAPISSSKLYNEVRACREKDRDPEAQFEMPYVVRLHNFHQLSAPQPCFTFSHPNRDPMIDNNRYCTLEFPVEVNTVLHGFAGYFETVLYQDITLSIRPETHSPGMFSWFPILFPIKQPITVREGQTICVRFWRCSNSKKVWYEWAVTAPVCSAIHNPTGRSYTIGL
# Sequence of PRMT5/MEP50 (Q9BQA1 whole entry partner): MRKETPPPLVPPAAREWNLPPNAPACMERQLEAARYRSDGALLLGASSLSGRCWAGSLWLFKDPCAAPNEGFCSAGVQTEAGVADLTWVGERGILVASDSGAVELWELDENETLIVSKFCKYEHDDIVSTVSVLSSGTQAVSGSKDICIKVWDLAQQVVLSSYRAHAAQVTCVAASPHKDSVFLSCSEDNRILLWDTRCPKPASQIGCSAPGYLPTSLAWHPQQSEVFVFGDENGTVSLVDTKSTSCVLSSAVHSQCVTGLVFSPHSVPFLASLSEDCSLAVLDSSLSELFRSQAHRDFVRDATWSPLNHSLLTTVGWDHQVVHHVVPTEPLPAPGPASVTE
# [5] = Body weight of mice during 5-week administration; assay type: in vivo
# Experimental: The dosing solution contained 15% DMSO, 17.5% Cremophor EL, 8.75% EtOH, 8.75% HCO-40, and 50% PBS. Blood samples were collected once a week by Retro Orbital Sampling (75 μL Calibrated Micropipette; Drummond Scientific Company) during isoflurane anesthesia. Blood RNA was extracted using NucleoSpin RNA Blood (Takara Bio Inc.). The weight of each mouse was measured every 3 or 4 days.
compound,measurement,setting,value
"NC(=O)NO [Hydroxyurea, hydroxyurea]",Percentage of γ-globin proteins relative to total β-like globin proteins,"[1]; day 11, 10 μM",8.1% and 10.3%
same,Percentage of γ-globin proteins relative to total β-like globin proteins,"[1]; day 11, 50 μM",8.1% and 10.3% and 14.3%
"Nc1ncnc2c1ncn2[C@@H]1O[C@H](CSCC[C@H](N)C(=O)O)[C@@H](O)[C@H]1O [SAH, S-(5'-Adenosyl)-L-homocysteine, reference compound]",IC50,MLL2 [2],11.6 µM
Cc1c(C(=O)NC(CCC2CC2)C(=O)Nc2ccc(C#N)cc2)[nH]c2c1C(=O)CC(C)(C)C2 (centres unmarked) [RK-701],"Metabolic stability, % remaining of RK-701","[3]; Time 5, replicate values",103.5% and 98.1%
same,"Metabolic stability, % remaining of RK-701","[3]; Time 10, replicate values",104.9% and 98.1%
same,"Metabolic stability, % remaining of RK-701","[3]; Time 20, replicate values",89.6% and 79.6%
same,"Metabolic stability, % remaining of RK-701","[3]; Time 30, replicate values",78.5% and 70.7%
same,"Metabolic stability, % remaining of RK-701","[3]; Time 60, replicate values",68.6% and 60.8%
same,"remaining at 5 min, 1 µM","[3]; human, liver microsomes, Metabolic stability, % remaining of RK-701, Human, Time 5, replicate values",93.1%
same,"remaining at 10 min, 1 µM","[3]; human, liver microsomes, Metabolic stability, % remaining of RK-701, Human, Time 10, replicate values",95.5%
same,"remaining at 20 min, 1 µM","[3]; human, liver microsomes, Metabolic stability, % remaining of RK-701, Human, Time 20, replicate values",80.5%
same,"remaining at 30 min, 1 µM","[3]; human, liver microsomes, Metabolic stability, % remaining of RK-701, Human, Time 30, replicate values",70.4%
same,"remaining at 60 min, 1 µM","[3]; human, liver microsomes, Metabolic stability, % remaining of RK-701, Human, Time 60, replicate values",62.1%
same,microsomal CLint at 1 μM,"[3]; human, liver microsomes, read-out: Metabolic stability in liver microsomes CLint",19 µL/min/mg
same,stability in liver microsomes,[3]; various species,most stable in human liver microsomes
same,IC50,MLL2 [4],> 100 µM
same,IC50,PRMT5/MEP50,> 100 µM
same,body weight of individual mice,"[5]; 20 mg/kg i.p., Day 0",17.8 g and 17.5 g and 16.8 g and 16.2 g and 16.4 g
same,body weight of individual mice,"[5]; 20 mg/kg i.p., Day 4",18.5 g and 17.7 g and 17.3 g and 17.2 g and 16.8 g and 17.4 g
same,body weight of individual mice,"[5]; 20 mg/kg i.p., Day 8",18.4 g and 18.1 g and 17.4 g and 17.7 g and 16.7 g and 17.8 g
same,body weight of individual mice,"[5]; 20 mg/kg i.p., Day 11",18.6 g and 18.2 g and 17.5 g and 17.6 g and 16.5 g and 17.1 g
same,body weight of individual mice,"[5]; 20 mg/kg i.p., Day 15",18.7 g and 18.1 g and 17.7 g and 18.2 g and 16.6 g
same,body weight of individual mice,"[5]; 20 mg/kg i.p., Day 18",19.3 g and 18.2 g and 17.8 g and 16.6 g
same,body weight of individual mice,"[5]; 20 mg/kg i.p., Day 22",18 g and 19 g and 18.5 g and 17 g and 18.6 g
same,body weight of individual mice,"[5]; 20 mg/kg i.p., Day 25",20.2 g and 19.5 g and 17.7 g and 18.3 g and 17.8 g and 18.8 g
same,body weight of individual mice,"[5]; 20 mg/kg i.p., Day 29",20.4 g and 18.2 g and 19.8 g and 18.7 g and 16 g and 18.5 g
same,body weight of individual mice,"[5]; 20 mg/kg i.p., Day 32",19.9 g and 20 g and 19 g and 19.7 g and 19.6 g
same,body weight of individual mice,"[5]; 50 mg/kg i.p., Day 0",14.7 g and 16.5 g and 17.3 g and 16.4 g and 17.4 g
same,body weight of individual mice,"[5]; 50 mg/kg i.p., Day 4",15.3 g and 18.3 g and 17.7 g and 17.3 g and 17.8 g
same,body weight of individual mice,"[5]; 50 mg/kg i.p., Day 8",14.8 g and 17.7 g and 18.3 g and 18.1 g
same,body weight of individual mice,"[5]; 50 mg/kg i.p., Day 11",16 g and 18 g and 18.7 g and 17.9 g and 18.5 g
same,body weight of individual mice,"[5]; 50 mg/kg i.p., Day 15",15 g and 18 g and 19.1 g and 17.9 g and 18.5 g
same,body weight of individual mice,"[5]; 50 mg/kg i.p., Day 18",15.1 g and 18.4 g and 19.3 g and 19.5 g
same,body weight of individual mice,"[5]; 50 mg/kg i.p., Day 22",15.5 g and 18.9 g and 19.7 g and 19.8 g
same,body weight of individual mice,"[5]; 50 mg/kg i.p., Day 25",16.7 g and 19.1 g and 20.6 g and 19.9 g and 20.4 g
same,body weight of individual mice,"[5]; 50 mg/kg i.p., Day 29",16.3 g and 18.4 g and 19.6 g and 19 g and 20 g
same,body weight of individual mice,"[5]; 50 mg/kg i.p., Day 32",16.7 g and 19.5 g and 21.2 g and 20 g
same,mouse body weights,[5]; five-week continuous administration,no effect on mouse body weights
